Activity calls are given as the source filed them. The rule behind the calls is not given here.
What was measured:
[1] = target: Carbonic anhydrase 9 (Homo sapiens, UniProt Q16790); assay: Inhibition of human CA-9 by stopped flow CO2 hydrase assay
[2] = tested on: Oryctolagus cuniculus; assay: Antiglaucoma activity in New Zealand albino rabbit assessed as reduction in hypertonic saline-induced intraocular pressure at 2% solution administered topically measured after 2 hrs; format: functional, organism-based; conditions: Eye

Row | Ki [1] [nM] | SMILES | Activity [2]
1 | 6.6 | NCCCCCOc1ccc(S(N)(=O)=O)cc1 | 
2 | 7.9 | CN(C)c1ccc2c(-c3ccc(NC(=S)NCCCOc4ccc(S(N)(=O)=O)cc4)cc3C(=O)O)c3ccc(=[N+](C)C)cc-3oc2c1 | 
3 | 7.1 | CC(C)(C)OC(=O)NCCCCCOc1ccc(S(N)(=O)=O)cc1 | 
4 | 8.3 | CC(C)(C)OC(=O)NCCOc1ccc(S(N)(=O)=O)cc1 | 
5 |  | CC(C)(C)OC(=O)NCCCCOc1ccc(S(N)(=O)=O)cc1 | Active
6 | 5.8 | CC(C)(C)OC(=O)NCCCOc1ccc(S(N)(=O)=O)cc1 | 
7 | 8.8 | NS(=O)(=O)c1ccc(OCCCCNC(=S)Nc2ccc(-c3c4ccc(=O)cc-4oc4cc(O)ccc34)c(C(=O)O)c2)cc1 | 
8 | 8.7 | NCCOc1ccc(S(N)(=O)=O)cc1 | 
9 | 9.6 | CN(C)c1ccc2c(-c3ccc(NC(=S)NCCOc4ccc(S(N)(=O)=O)cc4)cc3C(=O)O)c3ccc(=[N+](C)C)cc-3oc2c1 | 
10 | 6.5 | NCCCCCCOc1ccc(S(N)(=O)=O)cc1 | 
11 | 32.6 | NCCCCOc1ccc(S(N)(=O)=O)cc1 | Active
12 | 17.9 | NCCCOc1ccc(S(N)(=O)=O)cc1 | 
13 | 7.2 | NS(=O)(=O)c1ccc(OCCCNC(=S)Nc2ccc(-c3c4ccc(=O)cc-4oc4cc(O)ccc34)c(C(=O)O)c2)cc1 | 

Row | SMILES | Ki [1] [nM] | Activity [2]
14 | NS(=O)(=O)c1ccc(OCCNC(=S)Nc2ccc(-c3c4ccc(=O)cc-4oc4cc(O)ccc34)c(C(=O)O)c2)cc1 | 8.5 | 
15 | CC(C)(C)OC(=O)NCCCCCCOc1ccc(S(N)(=O)=O)cc1 | 6.9 | 

— ChEMBL document CHEMBL3352098, “A class of 4-sulfamoylphenyl-ω-aminoalkyl ethers with effective carbonic anhydrase inhibitory action and antiglaucoma effects” (J Med Chem, 2014)
